Laboratory results from PubChem BioAssay AID248 (DTP/NCI, 2004).
Values joined by “and” are separate entries in the source; they are usually repeats but may differ in a detail not shown here. Equal values may be shown once. Toxic doses and inconclusive results are not listed. Cut-off read from the data, not from the text of the source: active = T/C of 150% or more; inactive = T/C below 125%.

Test system: L1210 leukemia ip in BDF1 mice, survival T/C
Assay: NCI In Vivo Anticancer Drug Screen. Data for tumor model L1210 Leukemia (intraperitoneal) in B6D2F1 (BDF1) mice
Details: endpoint: mean survival time, higher = longer survival
Procedure, shortened: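 Mice bearing the transplanted tumor received compound or vehicle. Survival of the treated group was divided by that of the vehicle-treated control group to give the ratio.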

[1] = dose: 50.0 mg/kg/injection, schedule: Q01DX009 (ip), vehicle: Klucel (hydroxypropylcellulose) (HPC)
[2] = dose: 50.0 mg/kg/injection, schedule: Q04DX003 (ip), vehicle: Klucel (hydroxypropylcellulose) (HPC)
[3] = dose: 100.0 mg/kg/injection, schedule: Q01DX009 (ip), vehicle: Klucel (hydroxypropylcellulose) (HPC)
[4] = dose: 100.0 mg/kg/injection, schedule: Q04DX003 (ip), vehicle: Klucel (hydroxypropylcellulose) (HPC)
[5] = dose: 200.0 mg/kg/injection, schedule: Q04DX003 (ip), vehicle: Klucel (hydroxypropylcellulose) (HPC)
[6] = dose: 100.0 mg/kg/injection, schedule: Q01DX001 (ip), vehicle: saline
[7] = dose: 200.0 mg/kg/injection, schedule: Q01DX001 (ip), vehicle: saline
[8] = dose: 400.0 mg/kg/injection, schedule: Q01DX001 (ip), vehicle: saline
[9] = dose: 100.0 mg/kg/injection, schedule: Q01DX009 (ip), vehicle: saline with Tween-80
[10] = dose: 100.0 mg/kg/injection, schedule: Q04DX003 (ip), vehicle: saline with Tween-80
[11] = dose: 200.0 mg/kg/injection, schedule: Q01DX009 (ip), vehicle: saline with Tween-80
[12] = dose: 200.0 mg/kg/injection, schedule: Q04DX003 (ip), vehicle: saline with Tween-80
[13] = dose: 400.0 mg/kg/injection, schedule: Q04DX003 (ip), vehicle: saline with Tween-80
[14] = dose: 50.0 mg/kg/injection, schedule: Q01DX001 (ip), vehicle: saline
[15] = dose: 100.0 mg/kg/injection, schedule: Q01DX001 (ip), vehicle: carboxymethylcellulose (CMC)
[16] = dose: 200.0 mg/kg/injection, schedule: Q01DX001 (ip), vehicle: carboxymethylcellulose (CMC)
[17] = dose: 400.0 mg/kg/injection, schedule: Q01DX001 (ip), vehicle: carboxymethylcellulose (CMC)

Measured: T/C

O=Nc1ccc(O)cc1
inactive: dose: 25.0 mg/kg/injection, schedule: Q01DX009 (ip), vehicle: Klucel (hydroxypropylcellulose) (HPC) 96 % of control | dose: 25.0 mg/kg/injection, schedule: Q04DX002 (ip), vehicle: Klucel (hydroxypropylcellulose) (HPC) 104 % of control | dose: 25.0 mg/kg/injection, schedule: Q04DX003 (ip), vehicle: Klucel (hydroxypropylcellulose) (HPC) 102 % of control | [1] 102 % of control and 103 % of control | dose: 50.0 mg/kg/injection, schedule: Q04DX002 (ip), vehicle: Klucel (hydroxypropylcellulose) (HPC) 100 % of control | [2] 98 % of control | [3] 112 % of control and 123 % of control | dose: 100.0 mg/kg/injection, schedule: Q04DX002 (ip), vehicle: Klucel (hydroxypropylcellulose) (HPC) 104 % of control | [4] 100 % of control | dose: 200.0 mg/kg/injection, schedule: Q01DX009 (ip), vehicle: Klucel (hydroxypropylcellulose) (HPC) 100 % of control and 110 % of control | dose: 200.0 mg/kg/injection, schedule: Q04DX002 (ip), vehicle: Klucel (hydroxypropylcellulose) (HPC) 103 % of control | [5] 104 % of control

O=[N+]([O-])c1cc2cnn(CCl)c2cc1[N+](=O)[O-]
inactive: [6] 103 % of control | [7] 111 % of control | [8] 109 % of control

Oc1ccccc1C=NCCN=Cc1ccccc1O.[Zn+2]
inactive: dose: 100.0 mg/kg/injection, schedule: Q01DX001 (ip), vehicle: other 103 % of control | dose: 200.0 mg/kg/injection, schedule: Q01DX001 (ip), vehicle: other 114 % of control | dose: 400.0 mg/kg/injection, schedule: Q01DX001 (ip), vehicle: other 100 % of control

O=C1C(=O)c2ccccc2C(O)=C1CCCc1ccc(OCc2ccccc2)cc1
inactive: dose: 12.5 mg/kg/injection, schedule: Q01DX009 (ip), vehicle: saline with Tween-80 92 % of control

CC(NC(C)c1ccccc1)c1ccccc1 (centres undefined)
inactive: [1] 102 % of control | [3] 106 % of control | [4] 104 % of control | [5] 100 % of control

Nc1nc2ncc(CNc3ccc(C(=O)NC(CCC(=O)O)C(=O)O)cn3)nc2c(=O)[nH]1 (centres undefined)
inactive: dose: 25.0 mg/kg/injection, schedule: Q01DX009 (ip), vehicle: saline with Tween-80 104 % of control | dose: 37.5 mg/kg/injection, schedule: Q01DX009 (ip), vehicle: saline with Tween-80 114 % of control and 119 % of control | dose: 50.0 mg/kg/injection, schedule: Q01DX009 (ip), vehicle: saline with Tween-80 114 % of control | dose: 75.0 mg/kg/injection, schedule: Q01DX009 (ip), vehicle: saline with Tween-80 108 % of control

CC(=O)Oc1cc(C)nc(OC(C)=O)c1
inactive: [6] 94 % of control | [7] 100 % of control | [8] 97 % of control

CCCCC(=O)NS(=O)(=O)c1ccccc1
inactive: [9] 92 % of control | [10] 94 % of control | [11] 105 % of control | [12] 101 % of control | dose: 400.0 mg/kg/injection, schedule: Q01DX009 (ip), vehicle: saline with Tween-80 107 % of control | [13] 94 % of control

Nc1nc2c(=O)[nH]c(=O)[nH]c2n1C1OC(CO)C(O)C1O (centres undefined)
inactive: [6] 102 % of control | [7] 111 % of control

CC(=O)OCC1OC(n2cnc3c(N)ncnc32)C(OC(C)=O)C1OC(C)=O (centres undefined)
inactive: [14] 100 % of control | [6] 110 % of control | dose: 100.0 mg/kg/injection, schedule: Q01DX005 (ip), vehicle: saline 93 % of control | [7] 94 % of control and 106 % of control | dose: 200.0 mg/kg/injection, schedule: Q01DX005 (ip), vehicle: saline 95 % of control | dose: 200.0 mg/kg/injection, schedule: Q01DX009 (ip), vehicle: saline 104 % of control | [8] 94 % of control | dose: 400.0 mg/kg/injection, schedule: Q01DX009 (ip), vehicle: saline 109 % of control

CC(=O)C1Cc2ccccc2C1=O (centres undefined)
inactive: [14] 100 % of control | [6] 97 % of control | [7] 106 % of control | [8] 108 % of control

c1cc[nH]c1
inactive: dose: 75.0 mg/kg/injection, schedule: Q01DX001 (ip), vehicle: saline 100 % of control

COC(=O)C1C(C)CCCC1(C)c1ccccc1 (centres undefined)
inactive: dose: 100.0 mg/kg/injection, schedule: Q04DX002 (ip), vehicle: gum acacia 103 % of control | dose: 200.0 mg/kg/injection, schedule: Q04DX002 (ip), vehicle: gum acacia 106 % of control | dose: 400.0 mg/kg/injection, schedule: Q04DX002 (ip), vehicle: gum acacia 95 % of control

CC(CN)OCc1ccccc1 (centres undefined)
inactive: dose: 12.5 mg/kg/injection, schedule: Q01DX009 (ip), vehicle: saline 97 % of control | dose: 25.0 mg/kg/injection, schedule: Q01DX009 (ip), vehicle: saline 99 % of control | dose: 50.0 mg/kg/injection, schedule: Q01DX009 (ip), vehicle: saline 104 % of control

CO[C@@H]([CH2][Hg][S]C#N)[C@@H]([CH2][Hg][S]C#N)OC
inactive: dose: 6.25 mg/kg/injection, schedule: Q01DX009 (ip), vehicle: saline sonified 94 % of control | dose: 12.5 mg/kg/injection, schedule: Q01DX009 (ip), vehicle: saline sonified 90 % of control | dose: 12.5 mg/kg/injection, schedule: Q04DX003 (ip), vehicle: saline sonified 97 % of control | dose: 25.0 mg/kg/injection, schedule: Q01DX009 (ip), vehicle: saline sonified 93 % of control | dose: 25.0 mg/kg/injection, schedule: Q04DX003 (ip), vehicle: saline sonified 88 % of control

BrCCN1CCCCC1
inactive: dose: 1.56 mg/kg/injection, schedule: Q01DX009 (ip), vehicle: saline 104 % of control and 115 % of control | dose: 3.13 mg/kg/injection, schedule: Q01DX009 (ip), vehicle: saline 104 % of control and 112 % of control | dose: 6.25 mg/kg/injection, schedule: Q01DX009 (ip), vehicle: saline 101 % of control and 102 % of control | dose: 12.5 mg/kg/injection, schedule: Q01DX001 (ip), vehicle: saline 108 % of control | dose: 12.5 mg/kg/injection, schedule: Q04DX002 (ip), vehicle: saline 98 % of control and 106 % of control | dose: 12.5 mg/kg/injection, schedule: Q04DX003 (ip), vehicle: saline 91 % of control | dose: 25.0 mg/kg/injection, schedule: Q01DX001 (ip), vehicle: saline 105 % of control | dose: 25.0 mg/kg/injection, schedule: Q04DX002 (ip), vehicle: saline 106 % of control | dose: 25.0 mg/kg/injection, schedule: Q04DX003 (ip), vehicle: saline 96 % of control | dose: 50.0 mg/kg/injection, schedule: Q04DX002 (ip), vehicle: saline 104 % of control

N#Cc1cnn(CCO)c1N
inactive: [15] 103 % of control | dose: 100.0 mg/kg/injection, schedule: Q01DX009 (ip), vehicle: water 107 % of control | dose: 100.0 mg/kg/injection, schedule: Q04DX003 (ip), vehicle: water 115 % of control | [16] 97 % of control | dose: 200.0 mg/kg/injection, schedule: Q01DX009 (ip), vehicle: water 101 % of control | dose: 200.0 mg/kg/injection, schedule: Q04DX003 (ip), vehicle: water 110 % of control | [17] 100 % of control | dose: 400.0 mg/kg/injection, schedule: Q01DX009 (ip), vehicle: water 114 % of control | dose: 400.0 mg/kg/injection, schedule: Q04DX003 (ip), vehicle: water 104 % of control

CN(C)CCS(=O)(=O)c1ccc(Cl)cc1
inactive: dose: 100.0 mg/kg/injection, schedule: Q04DX002 (ip), vehicle: saline 102 % of control | dose: 200.0 mg/kg/injection, schedule: Q04DX002 (ip), vehicle: saline 109 % of control | dose: 400.0 mg/kg/injection, schedule: Q04DX002 (ip), vehicle: saline 98 % of control

O=C(CCl)Nc1ccc(SSc2ccc(NC(=O)CCl)cc2)cc1
inactive: [2] 95 % of control | [4] 101 % of control | [5] 101 % of control

CCC[Si](C)(C)C
inactive: [15] 94 % of control | [16] 96 % of control | [17] 89 % of control

Cc1cc(N2C(=O)CSC2=S)ccc1Br
inactive: [9] 104 % of control | [10] 96 % of control | [11] 93 % of control | [12] 93 % of control | [13] 104 % of control

COc1cc([N+](=O)[O-])c(N)c([N+](=O)[O-])c1
inactive: [14] 96 % of control | [6] 108 % of control | [7] 96 % of control | [8] 93 % of control
